Our source for the delta Tm Staurosporine positive control, ΔTm and inhibition values is ChEMBL document CHEMBL5303765, “Data for DCP probe BAY-7081” (2023).

For assay [1], the target named is Serine/threonine-protein kinase pim-1 (Homo sapiens) (UniProt P11309). Put plainly: PIM1 SGC Tm panel (DSF). The conditions noted are these: for ΔTm: Compound concentration 10.0 uM.
Assay [2] has as its target T1, Dual specificity mitogen-activated protein kinase kinase 7 (Homo sapiens) (UniProt O14733).
T1 sequence (whole entry): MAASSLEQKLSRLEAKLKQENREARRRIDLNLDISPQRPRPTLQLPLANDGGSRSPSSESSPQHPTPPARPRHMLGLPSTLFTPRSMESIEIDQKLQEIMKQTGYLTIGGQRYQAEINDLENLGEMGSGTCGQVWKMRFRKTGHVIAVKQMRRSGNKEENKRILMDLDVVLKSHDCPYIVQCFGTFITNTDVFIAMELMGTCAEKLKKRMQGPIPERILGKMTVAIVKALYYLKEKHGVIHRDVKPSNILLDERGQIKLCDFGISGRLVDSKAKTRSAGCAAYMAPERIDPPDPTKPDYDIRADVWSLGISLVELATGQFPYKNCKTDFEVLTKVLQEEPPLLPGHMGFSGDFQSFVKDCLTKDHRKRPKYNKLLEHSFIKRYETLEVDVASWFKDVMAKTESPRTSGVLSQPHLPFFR
Put plainly: MAP2K7 SGC Tm panel (DSF). Conditions: for ΔTm: Compound concentration 10.0 uM.

In assay [3] the target is Calcium/calmodulin-dependent protein kinase type 1G (Homo sapiens) (UniProt Q96NX5). Put plainly: CAMK1G SGC Tm panel (DSF). Conditions: for ΔTm: Compound concentration 10.0 uM.
The target in assay [4] is 5-hydroxytryptamine receptor 5A (Homo sapiens) (UniProt P47898). Conditions: Compound concentration 10.0 uM.
The target of assay [5] is T2, Serine/threonine-protein kinase 17A (Homo sapiens) (UniProt Q9UEE5).
T2 sequence (whole entry): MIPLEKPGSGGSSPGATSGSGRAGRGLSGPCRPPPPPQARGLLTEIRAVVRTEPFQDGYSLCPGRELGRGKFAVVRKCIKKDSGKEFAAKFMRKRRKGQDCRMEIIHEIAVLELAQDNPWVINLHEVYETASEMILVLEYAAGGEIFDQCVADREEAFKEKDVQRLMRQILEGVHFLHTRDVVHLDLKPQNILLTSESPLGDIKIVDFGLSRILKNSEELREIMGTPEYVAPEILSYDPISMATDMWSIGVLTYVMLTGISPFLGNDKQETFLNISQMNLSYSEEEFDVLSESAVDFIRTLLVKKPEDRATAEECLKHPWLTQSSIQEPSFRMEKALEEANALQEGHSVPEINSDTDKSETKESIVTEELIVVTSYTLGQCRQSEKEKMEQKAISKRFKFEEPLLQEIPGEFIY
Put plainly: STK17A SGC Tm panel (DSF). Conditions: for ΔTm: Compound concentration 10.0 uM.

The target of assay [6] is T3, Muscarinic acetylcholine receptor M2 (Homo sapiens) (UniProt P08172).
T3 sequence (whole entry): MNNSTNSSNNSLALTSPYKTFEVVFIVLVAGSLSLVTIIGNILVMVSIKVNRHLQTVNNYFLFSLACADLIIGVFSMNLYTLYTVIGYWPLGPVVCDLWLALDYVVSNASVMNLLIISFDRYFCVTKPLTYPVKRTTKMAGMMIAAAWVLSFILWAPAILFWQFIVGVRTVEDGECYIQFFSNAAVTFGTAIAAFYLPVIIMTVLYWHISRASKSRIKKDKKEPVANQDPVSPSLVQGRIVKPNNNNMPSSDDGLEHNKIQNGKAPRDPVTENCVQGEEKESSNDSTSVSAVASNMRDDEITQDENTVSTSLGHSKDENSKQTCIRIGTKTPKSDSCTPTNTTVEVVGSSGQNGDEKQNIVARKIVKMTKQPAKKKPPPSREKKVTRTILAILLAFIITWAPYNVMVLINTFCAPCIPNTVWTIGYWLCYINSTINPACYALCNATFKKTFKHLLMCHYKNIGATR
The conditions noted are these: Compound concentration 10.0 uM.

Assay [7] concerns the target Serine/threonine-protein kinase 24 (Homo sapiens) (UniProt Q9Y6E0). Put plainly: MST3 SGC Tm panel (DSF). The conditions noted are these: for ΔTm: Compound concentration 10.0 uM.
The target in assay [8] is T4, MAP/microtubule affinity-regulating kinase 4 (Homo sapiens) (UniProt Q96L34).
T4 sequence (whole entry): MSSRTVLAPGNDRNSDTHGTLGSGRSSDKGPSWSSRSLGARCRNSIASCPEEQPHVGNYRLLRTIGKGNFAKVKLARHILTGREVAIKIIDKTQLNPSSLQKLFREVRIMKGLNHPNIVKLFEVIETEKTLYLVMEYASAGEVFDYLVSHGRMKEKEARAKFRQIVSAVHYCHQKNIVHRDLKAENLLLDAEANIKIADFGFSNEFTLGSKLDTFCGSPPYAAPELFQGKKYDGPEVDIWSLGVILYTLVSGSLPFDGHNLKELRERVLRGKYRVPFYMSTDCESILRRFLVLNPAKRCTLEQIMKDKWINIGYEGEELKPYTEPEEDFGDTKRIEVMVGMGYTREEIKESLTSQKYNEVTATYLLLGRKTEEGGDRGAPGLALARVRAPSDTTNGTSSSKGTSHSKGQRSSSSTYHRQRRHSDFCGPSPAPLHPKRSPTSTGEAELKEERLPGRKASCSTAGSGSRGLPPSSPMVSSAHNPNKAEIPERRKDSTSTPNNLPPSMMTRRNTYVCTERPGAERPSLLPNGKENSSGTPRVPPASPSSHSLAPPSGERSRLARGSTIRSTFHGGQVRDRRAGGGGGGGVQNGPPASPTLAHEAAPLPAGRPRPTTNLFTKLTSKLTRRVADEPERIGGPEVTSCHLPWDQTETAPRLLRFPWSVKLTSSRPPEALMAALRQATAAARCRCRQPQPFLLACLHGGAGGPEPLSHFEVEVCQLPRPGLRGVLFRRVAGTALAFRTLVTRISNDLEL
Put plainly: MARK4 SGC Tm panel (DSF). Conditions: for ΔTm: Compound concentration 10.0 uM.

For assay [9], the target named is Tyrosine-protein kinase Fes/Fps (Homo sapiens) (UniProt P07332). Description: FES SGC Tm panel (DSF). The conditions noted are these: for ΔTm: Compound concentration 10.0 uM.
The target in assay [10] is Death-associated protein kinase 3 (Homo sapiens) (UniProt O43293). Put plainly: DAPK3 SGC Tm panel (DSF). The conditions noted are these: for ΔTm: Compound concentration 10.0 uM.
For assay [11], the target named is T5, Ribosyldihydronicotinamide dehydrogenase [quinone] (Homo sapiens) (UniProt P16083).
T5 sequence (whole entry): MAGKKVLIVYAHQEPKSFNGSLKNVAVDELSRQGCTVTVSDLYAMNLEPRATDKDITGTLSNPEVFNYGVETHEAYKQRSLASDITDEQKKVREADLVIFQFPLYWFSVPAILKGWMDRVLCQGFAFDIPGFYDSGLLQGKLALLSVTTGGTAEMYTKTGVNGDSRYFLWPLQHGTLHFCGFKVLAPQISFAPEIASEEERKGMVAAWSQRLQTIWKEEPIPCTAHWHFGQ
Description: NQO2 SGC Tm panel (DSF). The conditions noted are these: for ΔTm: Compound concentration 10.0 uM.

Assay [12] has as its target Serine/threonine-protein kinase MRCK alpha (Homo sapiens) (UniProt Q5VT25). Description: CDC42BPA SGC Tm panel (DSF). Conditions: for ΔTm: Compound concentration 10.0 uM.

What is called inhibition is the change of the read-out against control, counted positive when it falls.

Sequence of 5-hydroxytryptamine receptor 5A (Homo sapiens) (P47898 whole entry): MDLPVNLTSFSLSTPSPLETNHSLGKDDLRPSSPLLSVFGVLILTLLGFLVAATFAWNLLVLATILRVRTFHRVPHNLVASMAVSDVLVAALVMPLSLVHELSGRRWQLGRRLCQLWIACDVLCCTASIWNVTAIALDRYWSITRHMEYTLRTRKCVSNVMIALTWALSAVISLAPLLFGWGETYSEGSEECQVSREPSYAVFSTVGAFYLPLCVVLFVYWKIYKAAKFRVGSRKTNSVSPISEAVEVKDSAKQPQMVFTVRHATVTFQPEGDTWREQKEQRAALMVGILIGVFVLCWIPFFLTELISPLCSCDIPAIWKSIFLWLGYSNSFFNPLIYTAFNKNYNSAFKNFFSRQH
Sequence of Death-associated protein kinase 3 (Homo sapiens) (O43293 whole entry, looked up): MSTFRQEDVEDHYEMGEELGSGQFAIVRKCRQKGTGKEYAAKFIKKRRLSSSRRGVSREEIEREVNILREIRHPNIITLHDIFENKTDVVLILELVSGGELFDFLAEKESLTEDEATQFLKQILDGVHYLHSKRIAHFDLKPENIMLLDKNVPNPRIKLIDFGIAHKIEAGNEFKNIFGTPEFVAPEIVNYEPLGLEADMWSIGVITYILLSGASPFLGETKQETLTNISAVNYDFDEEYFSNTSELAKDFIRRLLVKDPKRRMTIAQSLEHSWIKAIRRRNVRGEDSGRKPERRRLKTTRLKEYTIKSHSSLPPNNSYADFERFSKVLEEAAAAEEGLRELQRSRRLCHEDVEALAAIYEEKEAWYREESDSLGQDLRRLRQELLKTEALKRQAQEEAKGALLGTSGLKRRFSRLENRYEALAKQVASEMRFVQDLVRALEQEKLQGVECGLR
Sequence of Serine/threonine-protein kinase pim-1 (Homo sapiens) (P11309 whole entry, looked up): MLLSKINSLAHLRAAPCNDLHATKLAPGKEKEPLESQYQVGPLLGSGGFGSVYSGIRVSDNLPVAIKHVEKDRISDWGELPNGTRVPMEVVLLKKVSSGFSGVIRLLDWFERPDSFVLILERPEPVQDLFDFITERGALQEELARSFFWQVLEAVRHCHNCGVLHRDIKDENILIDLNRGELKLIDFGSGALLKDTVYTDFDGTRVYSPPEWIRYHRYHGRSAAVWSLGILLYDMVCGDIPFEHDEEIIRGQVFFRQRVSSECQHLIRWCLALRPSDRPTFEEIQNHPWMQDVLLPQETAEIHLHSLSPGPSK
Sequence of Serine/threonine-protein kinase MRCK alpha (Homo sapiens) (Q5VT25 whole entry, looked up): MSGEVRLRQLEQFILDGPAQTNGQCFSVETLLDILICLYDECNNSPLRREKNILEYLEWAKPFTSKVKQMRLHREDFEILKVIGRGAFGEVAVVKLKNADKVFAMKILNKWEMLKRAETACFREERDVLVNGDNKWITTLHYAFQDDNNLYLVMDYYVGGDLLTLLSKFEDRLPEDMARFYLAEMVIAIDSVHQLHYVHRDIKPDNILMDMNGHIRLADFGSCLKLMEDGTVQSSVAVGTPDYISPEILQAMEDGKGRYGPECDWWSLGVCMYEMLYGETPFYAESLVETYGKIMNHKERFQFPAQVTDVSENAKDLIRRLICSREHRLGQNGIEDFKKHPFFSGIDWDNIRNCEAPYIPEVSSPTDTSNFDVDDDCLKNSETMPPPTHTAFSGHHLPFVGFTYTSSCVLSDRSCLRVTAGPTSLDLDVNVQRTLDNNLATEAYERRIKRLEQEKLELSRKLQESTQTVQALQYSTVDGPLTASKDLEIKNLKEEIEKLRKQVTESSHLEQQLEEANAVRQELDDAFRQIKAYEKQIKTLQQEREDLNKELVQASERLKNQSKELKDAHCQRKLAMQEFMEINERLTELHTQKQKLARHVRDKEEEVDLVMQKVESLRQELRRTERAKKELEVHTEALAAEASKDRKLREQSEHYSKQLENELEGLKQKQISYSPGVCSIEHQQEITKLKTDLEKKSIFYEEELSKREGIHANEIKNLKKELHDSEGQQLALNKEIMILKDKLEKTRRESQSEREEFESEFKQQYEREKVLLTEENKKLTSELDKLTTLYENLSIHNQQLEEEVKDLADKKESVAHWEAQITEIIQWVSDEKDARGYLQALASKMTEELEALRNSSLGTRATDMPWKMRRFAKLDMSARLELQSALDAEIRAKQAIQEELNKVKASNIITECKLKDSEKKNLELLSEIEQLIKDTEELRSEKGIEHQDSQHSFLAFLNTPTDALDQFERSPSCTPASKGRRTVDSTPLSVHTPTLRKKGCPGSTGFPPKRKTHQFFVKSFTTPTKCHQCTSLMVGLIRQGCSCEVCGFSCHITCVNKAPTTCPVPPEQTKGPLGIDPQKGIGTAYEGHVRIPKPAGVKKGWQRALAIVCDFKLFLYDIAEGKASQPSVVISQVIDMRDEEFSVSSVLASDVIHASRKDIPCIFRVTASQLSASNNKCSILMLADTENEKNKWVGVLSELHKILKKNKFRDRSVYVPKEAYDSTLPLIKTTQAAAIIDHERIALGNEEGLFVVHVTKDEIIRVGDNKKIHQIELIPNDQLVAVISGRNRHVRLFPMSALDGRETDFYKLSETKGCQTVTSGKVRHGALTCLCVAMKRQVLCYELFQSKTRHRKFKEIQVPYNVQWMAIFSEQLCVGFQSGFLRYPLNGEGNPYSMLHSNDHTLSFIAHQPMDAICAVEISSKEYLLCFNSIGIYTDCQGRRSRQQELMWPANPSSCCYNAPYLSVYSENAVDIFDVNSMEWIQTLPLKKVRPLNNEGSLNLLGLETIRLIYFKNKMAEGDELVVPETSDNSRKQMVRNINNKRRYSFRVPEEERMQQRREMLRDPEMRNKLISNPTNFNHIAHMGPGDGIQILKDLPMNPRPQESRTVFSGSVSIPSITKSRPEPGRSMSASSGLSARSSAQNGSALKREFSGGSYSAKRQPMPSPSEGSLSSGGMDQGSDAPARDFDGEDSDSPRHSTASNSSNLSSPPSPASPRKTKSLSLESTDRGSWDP
Sequence of Serine/threonine-protein kinase 24 (Homo sapiens) (Q9Y6E0 whole entry, looked up): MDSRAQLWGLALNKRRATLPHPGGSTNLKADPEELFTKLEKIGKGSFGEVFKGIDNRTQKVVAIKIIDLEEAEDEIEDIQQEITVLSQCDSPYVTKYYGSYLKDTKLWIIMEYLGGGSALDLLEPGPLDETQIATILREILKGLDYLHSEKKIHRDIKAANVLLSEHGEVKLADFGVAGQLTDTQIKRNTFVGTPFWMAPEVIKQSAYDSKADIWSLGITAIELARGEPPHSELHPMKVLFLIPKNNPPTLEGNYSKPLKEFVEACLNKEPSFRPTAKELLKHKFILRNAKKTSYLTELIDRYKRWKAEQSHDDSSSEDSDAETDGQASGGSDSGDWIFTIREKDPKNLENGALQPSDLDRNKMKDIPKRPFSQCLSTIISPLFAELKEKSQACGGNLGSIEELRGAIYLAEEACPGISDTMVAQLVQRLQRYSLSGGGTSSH
Sequence of Tyrosine-protein kinase Fes/Fps (Homo sapiens) (P07332 whole entry): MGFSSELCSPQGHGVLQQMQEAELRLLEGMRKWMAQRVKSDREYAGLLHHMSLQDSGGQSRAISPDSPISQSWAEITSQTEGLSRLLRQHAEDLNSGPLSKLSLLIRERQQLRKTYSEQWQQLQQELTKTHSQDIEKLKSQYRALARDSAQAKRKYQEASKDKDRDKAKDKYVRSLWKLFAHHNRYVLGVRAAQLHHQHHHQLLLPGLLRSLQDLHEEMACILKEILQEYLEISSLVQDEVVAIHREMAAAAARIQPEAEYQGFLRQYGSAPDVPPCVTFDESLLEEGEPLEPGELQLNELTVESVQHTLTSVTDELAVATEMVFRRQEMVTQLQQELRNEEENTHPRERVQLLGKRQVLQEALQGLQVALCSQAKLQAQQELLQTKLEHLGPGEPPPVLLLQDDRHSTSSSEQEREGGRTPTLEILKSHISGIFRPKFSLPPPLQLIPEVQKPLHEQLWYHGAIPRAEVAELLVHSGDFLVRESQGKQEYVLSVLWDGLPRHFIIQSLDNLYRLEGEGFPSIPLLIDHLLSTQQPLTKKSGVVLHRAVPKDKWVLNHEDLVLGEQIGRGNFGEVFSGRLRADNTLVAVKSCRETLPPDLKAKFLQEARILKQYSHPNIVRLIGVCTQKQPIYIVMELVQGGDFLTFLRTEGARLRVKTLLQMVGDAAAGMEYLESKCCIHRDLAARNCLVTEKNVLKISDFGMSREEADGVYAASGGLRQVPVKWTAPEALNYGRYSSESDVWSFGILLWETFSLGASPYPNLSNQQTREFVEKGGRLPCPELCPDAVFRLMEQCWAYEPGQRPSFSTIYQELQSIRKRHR
Sequence of Calcium/calmodulin-dependent protein kinase type 1G (Homo sapiens) (Q96NX5 whole entry): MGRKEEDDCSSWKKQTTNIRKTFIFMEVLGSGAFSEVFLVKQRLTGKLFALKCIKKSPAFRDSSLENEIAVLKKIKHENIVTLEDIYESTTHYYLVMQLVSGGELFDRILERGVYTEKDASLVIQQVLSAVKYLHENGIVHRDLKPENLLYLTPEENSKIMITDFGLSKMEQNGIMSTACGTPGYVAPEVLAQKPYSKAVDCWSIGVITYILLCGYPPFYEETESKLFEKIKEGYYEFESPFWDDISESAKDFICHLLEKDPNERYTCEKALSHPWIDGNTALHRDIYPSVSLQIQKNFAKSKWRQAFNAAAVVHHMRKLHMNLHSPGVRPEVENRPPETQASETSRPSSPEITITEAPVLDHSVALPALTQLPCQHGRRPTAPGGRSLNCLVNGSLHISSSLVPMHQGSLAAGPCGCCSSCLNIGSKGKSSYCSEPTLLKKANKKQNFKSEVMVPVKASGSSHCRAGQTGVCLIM

On to `CCC[C@H]1CNCc2c1[nH]c(=O)c(C#N)c2N1CCC2(CC1)CC2`, for which the delta Tm Staurosporine positive control in [1] worked out at 12.2; in assay [2], 7.05; in [3], 11.2; in assay [5] it was 11.8; in assay [7], 7.85; in assay [8], 15.9. In addition, the delta Tm Staurosporine positive control in [9] is 9.22; in [10] it was 16.6; in assay [11] it was -1.11; in assay [12], 3.2. For the same compound, the ΔTm was -0.108 in [1]; -1.17 in [2]; -0.348 in assay [3]; -1.05 in assay [5]; -2.08 in assay [7]; -0.175 in assay [8]. Besides, the ΔTm in [9] is -0.11; in [10] it was 0.222; in [11], -0.626; in assay [12], 0.0908. Also, the inhibition in assay [4] is 5.53%; in assay [6] it was -1.19%.
As for `CCC[C@@H]1CNCc2c1[nH]c(=O)c(C#N)c2N1CCC2(CC1)CC2`, the delta Tm Staurosporine positive control is 12.2 in [1]; 7.05 in assay [2]; 11.2 in [3]; 11.8 in assay [5]; 7.85 in assay [7]; 15.9 in assay [8]. For the same compound, the delta Tm Staurosporine positive control in [9] is 9.22; in [10], 16.6; in [11], -1.11; in assay [12], 3.2. The ΔTm in assay [1] was -0.124; in assay [2] it was -1.17; in assay [3], -0.416; in assay [5] it was -1.01; in assay [7], -2.14; in assay [8] it was 0.243. The ΔTm in assay [9] was -0.389; in assay [10], 0.29; in assay [11], -0.613; in assay [12] it was 0.159. For the same compound, the inhibition was 3.9% in [4] and 2.48% in assay [6].
